# US11382867B2, “Apomorphine-palmitic acid cocrystal solid particle crystalline form” (LEUKOS BIOTECH, S. L., priority 2018, dated 2022)
# Structures can show the parent of a compound that is named as a salt.
# What was measured:
# [1] = In vivo comparative pharmacokinetic and tolerance study, subcutaneous administration; details: rats
# Method: Apomorphine Hydrochloride (Apo-HCl) was administered subcutaneously to Sprague Dawley rats three times a day for six days (total of eighteen 0.1-mL administrations). Both test items were compared for tolerance and systemic exposure: blood samples were collected from the lateral vein of the tail from all animals on treatment days 1 and 5 at all groups from main animals, samples were analyzed for apomorphine level determination.
# [2] = Solubility in water; format: physicochemical; details: water at RT
# Method: Water was progressively added at RT to APO HCl (I) until complete dissolution was reached. Subsequently, the same volume of water was added at RT to the other salts in order to compare their solubility. The mixtures were stirred for 10-15 minutes to allow equilibration. As the salts remained insoluble, the suspensions were diluted with twice the original volume and allowed to equilibrate for another 10-15 minutes at RT.
# [3] = format: physicochemical; details: 40±2° C./75±5% RH, 1 week
structure (smiles),measurement,setting,value
"CN1CCc2cccc3c2[C@H]1Cc1ccc(O)c(O)c1-3 [APO HCl (I), Apomorphine hydrochloride]",Apomorphine levels in blood (PK profile),[1],rapid decrease of Apomorphine levels
same,solubility in water,[2],soluble in water
same,volume of water for dissolution,[2]; 10-15 minutes equilibration,54 V
"CCCCCCCCCCCCCCCC(=O)O.CCCCCCCCCCCCCCCC(=O)O.CN1CCc2cccc3c2[C@H]1Cc1ccc(O)c(O)c1-3 [Form O, Apo-Palmitic Acid (1:2)]",Apomorphine levels in blood (PK profile),[1],Sustained Apomorphine levels
same,AUC,[1]; compared with Apo-HCl,higher than Apo-HCl
same,Cmax,[1]; compared with Apo-HCl,lower than Apo-HCl
same,stability,[3],remained stable
